From ChEMBL document CHEMBL1135906 (J Med Chem, 2002)
pIC50: −log10 of the molar value.

Tests used:
[1] = target: Prostaglandin G/H synthase 1 (Homo sapiens, UniProt P23219); assay: Inhibition of human purified Prostaglandin G/H synthase 1
[2] = test system: Rattus norvegicus; assay: Under dose in vivo for activity against carrageenan induced paw edema in rat after administering perorally; type: functional
[3] = target: T1, Prostaglandin G/H synthase 2 (Homo sapiens, UniProt P35354); assay: Inhibition of human purified Prostaglandin G/H synthase 2
T1 sequence (P35354 whole entry): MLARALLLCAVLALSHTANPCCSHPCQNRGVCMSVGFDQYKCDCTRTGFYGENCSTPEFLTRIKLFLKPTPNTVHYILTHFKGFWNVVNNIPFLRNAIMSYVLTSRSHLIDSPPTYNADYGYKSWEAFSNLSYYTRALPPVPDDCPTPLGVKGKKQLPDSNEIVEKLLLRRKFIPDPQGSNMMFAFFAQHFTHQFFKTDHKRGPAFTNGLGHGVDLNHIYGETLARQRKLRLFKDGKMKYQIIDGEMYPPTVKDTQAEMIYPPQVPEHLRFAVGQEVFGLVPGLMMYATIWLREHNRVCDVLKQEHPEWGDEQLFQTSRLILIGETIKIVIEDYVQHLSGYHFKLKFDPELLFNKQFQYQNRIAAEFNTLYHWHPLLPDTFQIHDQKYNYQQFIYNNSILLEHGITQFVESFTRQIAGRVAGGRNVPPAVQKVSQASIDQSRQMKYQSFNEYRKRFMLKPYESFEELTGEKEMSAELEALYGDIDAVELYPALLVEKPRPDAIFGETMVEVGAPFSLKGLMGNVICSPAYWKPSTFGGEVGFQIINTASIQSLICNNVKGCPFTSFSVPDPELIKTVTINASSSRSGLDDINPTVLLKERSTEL

[4] = test system: Rattus norvegicus; assay: The effective dose in vivo for activity against carrageenan induced paw edema in rat after administering perorally; type: functional
[5] = test system: Rattus norvegicus; assay: The compound was tested in vivo for gastric ulcerogenic activity in rat after peroral administration; type: functional, Stomach
[6] = species on record: Rattus norvegicus; assay: animal or person; conditions: po
Description: The compound was tested in vivo for activity against adjuvant-induced arthritis in rat after peroral administration after peroral administration

[7] = test system: Rattus norvegicus; assay: The compound was tested in vivo for activity against carrageenan induced paw edema in rat after peroral administration; type: functional; conditions: po
[8] = test system: Rattus norvegicus; assay: The compound was tested in vivo for activity against yeast -induced hyperthermia in rat after peroral administration; type: functional; conditions: po
[9] = test system: Rattus norvegicus; assay: The compound was tested in vivo for activity against adjuvant-induced arthritis in rat after peroral administration; type: functional; conditions: po
[10] = test system: Rattus norvegicus; assay: The compound was tested in vivo for activity against yeast -induced hyperalgesia in rat after peroral administration; type: functional; conditions: po

Chain of Prostaglandin G/H synthase 1 (P23219 whole entry): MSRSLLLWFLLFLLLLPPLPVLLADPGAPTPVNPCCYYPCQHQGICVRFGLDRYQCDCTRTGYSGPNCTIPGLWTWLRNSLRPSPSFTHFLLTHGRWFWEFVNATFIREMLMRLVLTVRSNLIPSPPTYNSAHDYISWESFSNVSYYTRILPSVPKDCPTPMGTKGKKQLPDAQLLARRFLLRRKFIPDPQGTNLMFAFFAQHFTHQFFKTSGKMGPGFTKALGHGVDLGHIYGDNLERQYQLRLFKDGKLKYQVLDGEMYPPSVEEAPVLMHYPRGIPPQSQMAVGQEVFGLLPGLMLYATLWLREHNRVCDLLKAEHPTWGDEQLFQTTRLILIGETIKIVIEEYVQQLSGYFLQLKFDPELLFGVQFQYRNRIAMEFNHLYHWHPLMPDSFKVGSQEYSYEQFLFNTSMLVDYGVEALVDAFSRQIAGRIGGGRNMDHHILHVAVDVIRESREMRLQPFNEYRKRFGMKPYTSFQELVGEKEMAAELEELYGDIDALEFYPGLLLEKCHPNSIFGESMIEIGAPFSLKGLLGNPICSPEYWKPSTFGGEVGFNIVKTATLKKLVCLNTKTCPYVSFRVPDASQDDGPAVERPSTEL

pIC50 [1] | pIC50 [3] | Compound | further results
< 4.00 | 7.07 | Cc1nc(C2CCCCC2)c(-c2ccc(S(N)(=O)=O)c(F)c2)o1 [TILMACOXIB] | UD50 [2]: >300 mg/kg; ED50 [4]: 4.4 mg kg-1 [middle of 4 runs]
– | – | Cc1ccc(-c2cc(C(F)(F)F)nn2-c2ccc(S(N)(=O)=O)cc2)cc1 [CELECOXIB] | UD50 [5]: >200 mg/kg; ED50 [6]: 0.37 mg/kg; ED50 [7]: 2.8 mg/kg
– | – | COc1ccc2c(c1)c(CC(=O)O)c(C)n2C(=O)c1ccc(Cl)cc1 [INDOMETHACIN] | ED50 [8]: 1.4 mg/kg; ED50 [9]: 0.13 mg/kg; UD50 [5]: 3.4 mg/kg; ED50 [10]: 3.1 mg/kg; ED50 [7]: 1.6 mg/kg
4.60 | 7.59 | Cc1nc(-c2ccc(C)s2)c(-c2ccc(S(N)(=O)=O)c(F)c2)o1 | –
< 4.00 | – | Cc1nc(C2CCCCC2)c(-c2ccc(S(N)(=O)=O)c(Cl)c2)o1 | –
4.53 | 6.22 | CC(C)c1nc(C2CCCCC2)c(-c2ccc(S(N)(=O)=O)c(F)c2)o1 | –
4.40 | 7.40 | Cc1nc(-c2ccc(F)cc2)c(-c2ccc(S(N)(=O)=O)c(F)c2)o1 | –
< 4.00 | 4.71 | Cc1nc(C2CCCCC2)c(-c2ccc(S(N)(=O)=O)c(O)c2)o1 | –
< 4.00 | 6.03 | Cc1nc(C2CCCCC2)c(-c2ccc(S(N)(=O)=O)c(N)c2)o1 | –
4.33 | 6.92 | CCc1nc(C2CCCCC2)c(-c2ccc(S(N)(=O)=O)c(F)c2)o1 | –
< 4.00 | – | Cc1nc(C2CCCCC2)c(-c2ccc(S(N)(=O)=O)c(C)c2)o1 | –
5.74 | 7.92 | Cc1nc(-c2ccc(C)s2)c(-c2ccc(S(N)(=O)=O)cc2)o1 | –
< 4.00 | < 4.00 | COc1cc(-c2oc(C)nc2C2CCCCC2)ccc1S(N)(=O)=O | –
